The target of this test is T1, KRAS G12C (GMPPNP-loaded, Cys-light, amino acids 1-169) and cRAF Ras-binding domain interaction (Homo sapiens, UniProt P01116, C118S/C51S/C80L/G12C).
T1 construct: truncated version comprising amino acids 1-169
Kind of test: Inhibition of KRAS G12C and cRAF binding (AlphaScreen). The settings on record: KRAS G12C preloaded with GMPPNP, 2 hours compound incubation, room temperature. How it is done: The AlphaScreen technology was used to determine IC50s for compound inhibition of KRAS G12C (present as the Cys-light (C51S, C80L and C118S), truncated version comprising amino acids 1-169) and cRAF interaction. Compounds were diluted in 100% DMSO and each compound concentration was spotted at 200 nl/well onto low volume, white 384 well plates. The KRAS G12C contained a biotin-AviTag and the cRaf, as Ras-binding domain (amino acids 50-131, RBD), was GST-tagged. KRAS G12C was preloaded with the GTP analogue Guanosine 5′-[…] (GMPPNP). The KRAS G12C was diluted in 25 mM Hepes, pH 7.4, 150 mM NaCl, 5 mM MgCl2, 0.01% TritonX-100 and 10 μM GMPPNP and added at 10 ul/well to compound-spotted plates resulting in a DMSO concentration of 2%. Plates were incubated for 2 hours. A mixture of RBD and the AlphaScreen streptavidin donor and glutathione acceptor beads diluted in 25 mM Hepes, pH 7.4, 150 mM NaCl, 5 mM MgCl2, 0.01% TritonX-100 and 2% DMSO was then added at 10 ul/well and incubated for 60-90 minutes before the samples were read for emission at 570 nm after excitation of the donor beads at 680 nm. All incubations were performed at room temperature. The final top compound concentration was 50 μM with 1:3 titrations for 10-point dose response curves. Final assay conditions were 0.5 nM KRAS G12C, 0.75 nM RBD and 5 μg/ml each of AlphaScreen donor and acceptor beads. IC50s were determined using nonlinear regression fit of [inhibitor] vs. response (4 parameters).
A counter assay was also set up to rule out inhibitors of the AlphaScreen technology itself. Compound plates were incubated for 2 hours as above with buffer only. The AlphaScreen beads were added as above except biotin-AviTag-GST was substituted for the RBD. Samples were read and analyzed as above.
(Alpha assays give light when donor and acceptor beads are brought close together.)

As a reminder, the IC50 is the point on the concentration scale where inhibition reaches its midpoint. Low values mean greater potency in that assay, high ones weaker potency in that assay.

T1 sequence (P01116 1-169 isoform P01116-2 G12C/C51S/C80L/C118S): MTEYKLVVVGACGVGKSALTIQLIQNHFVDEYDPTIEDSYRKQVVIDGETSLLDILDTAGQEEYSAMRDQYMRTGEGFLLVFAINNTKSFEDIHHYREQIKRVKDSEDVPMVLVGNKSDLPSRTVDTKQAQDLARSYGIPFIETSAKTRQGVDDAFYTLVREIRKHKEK

In turn, `COC(=O)/C=C(\F)C(=O)N1CCC(N(C)c2nc(OCC34CCCN3CCC4)nc3c2CCN(c2cccc4cccc(Cl)c24)C3)C1` (stereo not drawn) [Compound 1] returned an IC50 of 10 to 100 nM.

In the case of `Cc1nccc(/C=C(\F)C(=O)N2CCN(c3nc(OCC45CCCN4CCC5)nc4c(F)c(-c5cccc6cccc(Cl)c56)ncc34)C[C@@H]2CC#N)n1` [Compound 2], the IC50 was < 10 nM.

As for `Cc1nsc(/C=C(\F)C(=O)N2CCN(c3nc(OCC45CCCN4CCC5)nc4c3CCN(c3cccc5ccc(F)c(Cl)c35)C4)C[C@@H]2CC#N)n1` [Compound 3], the IC50 was < 10 nM.

For `CC(C)c1noc(/C=C(\F)C(=O)N2CCN(c3nc(OCC45CCCN4CCC5)nc4c(F)c(-c5cccc6cccc(Cl)c56)ncc34)C[C@@H]2CC#N)n1` [Compound 4], the IC50 was < 10 nM.

With `Cc1nccc(/C=C(\F)C(=O)N2CCN(c3nc(OC[C@@]45CCCN4C[C@H](F)C5)nc4c(F)c(-c5cccc6ccc(F)c(Cl)c56)ncc34)C[C@@H]2CC#N)n1` [Compound 5, 2-((S)-4-(7-(8-chloro-7-fluoronaphthalen-1-yl)-8-fluoro-2-(((2R,7aS)-2-fluorotetrahydro-1H-pyrrolizin-7a(5H)-yl)methoxy)pyrido[4,3-d]pyrimidin-4-yl)-1-((Z)-2-fluoro-3-(2-methylpyrimidin-4-yl)acryloyl)piperazin-2-yl)acetonitrile], the IC50 was < 10 nM.

As to `N#CC[C@H]1CN(c2nc(OC[C@@]34CCCN3C[C@H](F)C4)nc3c(F)c(-c4cccc5cccc(Cl)c45)ncc23)CCN1C(=O)/C(F)=C/c1ccnc(C2CC2)n1` [Compound 6], the IC50 is < 10 nM.

`N#CC[C@H]1CN(c2nc(OC[C@@]34CCCN3C[C@H](F)C4)nc3c(F)c(-c4cccc5ccc(F)c(Cl)c45)ncc23)CCN1C(=O)/C(F)=C\c1ccnc(C2CC2)n1` [Compound 7] showed a concentration for half-maximal inhibition (IC50) of 10 to 100 nM.

Molecule `N#CC[C@H]1CN(c2nc(OC[C@@]34CCCN3C[C@H](F)C4)nc3c(F)c(-c4cccc5ccc(F)c(F)c45)ncc23)CCN1C(=O)/C(F)=C\c1ccnc(C2CC2)n1` [Compound 8] showed an IC50 of 10 to 100 nM.

Take `CCc1c(F)ccc2cccc(-c3ncc4c(N5CCN(C(=O)/C(F)=C/c6ccnc(C)n6)[C@@H](CC#N)C5)nc(OC[C@@]56CCCN5C[C@H](F)C6)nc4c3F)c12` [Compound 9, 2-((S)-4-(7-(8-ethyl-7-fluoronaphthalen-1-yl)-8-fluoro-2-(((2R,7aS)-2-fluorotetrahydro-1H-pyrrolizin-7a(5H)-yl)methoxy)pyrido[4,3-d]pyrimidin-4-yl)-1-((Z)-2-fluoro-3-(2-methylpyrimidin-4-yl)acryloyl)piperazin-2-yl)acetonitrile]: the IC50 was < 10 nM.

Regarding `CCc1c(F)ccc2cccc(-c3ncc4c(N5CCN(C(=O)/C(F)=C\c6ccnc(C7CC7)n6)[C@@H](CC#N)C5)nc(OC[C@@]56CCCN5C[C@H](F)C6)nc4c3F)c12` [Compound 10], the IC50 was 100 to 500 nM.

`Cc1nccc(/C=C(\F)C(=O)N2CCN(c3nc(OC[C@@]45CCCN4C[C@H](F)C5)nc4c(F)c(-c5cccc6ccc(F)c(F)c56)ncc34)C[C@@H]2CC#N)n1` [Compound 11, 2-((S)-4-(7-(7,8-difluoronaphthalen-1-yl)-8-fluoro-2-(((2R,7aS)-2-fluorotetrahydro-1H-pyrrolizin-7a(5H)-yl)methoxy)pyrido[4,3-d]pyrimidin-4-yl)-1-((Z)-2-fluoro-3-(2-methylpyrimidin-4-yl)acryloyl)piperazin-2-yl)acetonitrile]: the IC50 is < 10 nM.

As for `CN1CCC1/C=C(/F)C(=O)N1CCN(c2nc(OC[C@@]34CCCN3C[C@H](F)C4)nc3c(F)c(-c4cccc5ccc(F)c(F)c45)ncc23)C[C@@H]1CC#N` (stereo partly drawn) [Compound 12], the IC50 was ≥ 500 nM.

`CN1CC[C@@H]1/C=C(\F)C(=O)N1CC[C@@H](N(C)c2nc(OC[C@@]34CCCN3C[C@H](F)C4)nc3c(F)c(-c4cccc5ccc(F)c(F)c45)ncc23)C1` [Compound 13]: the IC50 fell in the range of 100 to 500 nM.

Take `CN1CC[C@@H]1/C=C(/F)C(=O)N1CC[C@@H](N(C)c2nc(OC[C@@]34CCCN3C[C@H](F)C4)nc3c(F)c(-c4cccc5ccc(F)c(F)c45)ncc23)C1` [Compound 14]: the IC50 fell in the range of 10 to 100 nM.

`CCc1c(F)ccc2cccc(-c3ncc4c(N5CCN(C(=O)/C(F)=C/c6cc(C)nc(C)n6)[C@@H](CC#N)C5)nc(OC[C@@]56CCCN5C[C@H](F)C6)nc4c3F)c12` [Compound 15]: the IC50 is < 10 nM.

As for `CN1CCC1/C=C(\F)C(=O)N1CCN(c2nc(OC[C@@]34CCCN3C[C@H](F)C4)nc3c(F)c(-c4cccc5ccc(F)c(Cl)c45)ncc23)C[C@@H]1CC#N` (stereo partly drawn) [Compound 16, 2-((2S)-4-(7-(8-chloro-7-fluoronaphthalen-1-yl)-8-fluoro-2-(((2R,7aS)-2-fluorotetrahydro-1H-pyrrolizin-7a(5H)-yl)methoxy)pyrido[4,3-d]pyrimidin-4-yl)-1-((Z)-2-fluoro-3-(1-methylazetidin-2-yl)acryloyl)piperazin-2-yl)acetonitrile], the 50% inhibitory concentration (IC50) was in the range of 100 to 500 nM.

As for `CN1CCC1/C=C(/F)C(=O)N1CCN(c2nc(OC[C@@]34CCCN3C[C@H](F)C4)nc3c(F)c(-c4cccc5ccc(F)c(Cl)c45)ncc23)C[C@@H]1CC#N` (stereo partly drawn) [Compound 17], the IC50 is ≥ 500 nM.

For the molecule `Cc1nccc(/C=C(\F)C(=O)N2CCN(c3nc(OC[C@@]45CCCN4C[C@H](F)C5)nc4c(F)c(-c5cccc6cccc(Cl)c56)ncc34)C[C@@H]2CC#N)n1` [Compound 18], the IC50 is < 10 nM.

Consider `Cc1cc(/C=C(\F)C(=O)N2CCN(c3nc(OC[C@@]45CCCN4C[C@H](F)C5)nc4c(F)c(-c5cccc6cccc(F)c56)ncc34)C[C@@H]2CC#N)nc(C)n1` [Compound 19], for which the IC50 is < 10 nM.

For the molecule `Cc1nccc(/C=C(\F)C(=O)N2CCN(c3nc(OC[C@@]45CCCN4C[C@H](F)C5)nc4c(F)c(-c5cccc(Cl)c5C5CC5)ncc34)C[C@@H]2CC#N)n1` [Compound 20], the half-maximal inhibitory concentration (IC50) was < 10 nM.

In the case of `N#CC[C@H]1CN(c2nc(OC[C@@]34CCCN3C[C@H](F)C4)nc3c(F)c(-c4cccc5cccc(Cl)c45)ncc23)CCN1C(=O)/C(F)=C/CN1[C@@H]2CC[C@H]1COC2` [Compound 21], the IC50 was ≥ 500 nM.

For `Cc1nccc(/C=C(\F)C(=O)N2CCN(c3nc(OC[C@@]45CCCN4C[C@H](F)C5)nc4c(F)c(-c5cccc6ccc(F)c(C)c56)ncc34)C[C@@H]2CC#N)n1` [Compound 22], the IC50 is < 10 nM.

`Cc1nccc(/C=C(\F)C(=O)N2CCN(c3nc(OC[C@@]45CCCN4C[C@H](F)C5)nc4c(F)c(-c5cccc6c(C)c(F)ccc56)ncc34)C[C@@H]2CC#N)n1` [Compound 23] had an IC50 of 10 to 100 nM.

On to `N#CC[C@H]1CN(c2nc(OC[C@@]34CCCN3C[C@H](F)C4)nc3c(F)c(-c4cccc5ccc(F)c(F)c45)ncc23)CCN1C(=O)/C(F)=C/CN1CCOCC1` [Compound 24], for which the half-maximal inhibitory concentration (IC50) lay in the range of 100 to 500 nM.

For the molecule `Cc1cc(/C=C(\F)C(=O)N2CCN(c3nc(OC[C@@]45CCCN4C[C@H](F)C5)nc4c(F)c(-c5cccc6cccc(Cl)c56)ncc34)C[C@@H]2CC#N)nc(C)n1` [Compound 26], the IC50 was < 10 nM.

Regarding `Cc1cc(/C=C(\F)C(=O)N2CCN(c3nc(OC[C@@]45CCCN4C[C@H](F)C5)nc4c(F)c(-c5cccc6ccc(F)c(F)c56)ncc34)C[C@@H]2CC#N)nc(C)n1` [Compound 27], the half-maximal inhibitory concentration (IC50) was < 10 nM.

For `N#CC[C@H]1CN(c2nc(OC[C@@]34CCCN3C[C@H](F)C4)nc3c(F)c(-c4cccc5cccc(F)c45)ncc23)CCN1C(=O)/C(F)=C/CN1[C@@H]2CC[C@H]1COC2` [Compound 28], the IC50 was ≥ 500 nM.

`C#Cc1c(F)ccc2cccc(-c3ncc4c(N5CCN(C(=O)/C(F)=C/c6cc(C)nc(C)n6)[C@@H](CC#N)C5)nc(OC[C@@]56CCCN5C[C@H](F)C6)nc4c3F)c12` [Compound 29, 2-((S)-1-((Z)-3-(2,6-dimethylpyrimidin-4-yl)-2-fluoroacryloyl)-4-(7-(8-ethynyl-7-fluoronaphthalen-1-yl)-8-fluoro-2-(((2R,7aS)-2-fluorotetrahydro-1H-pyrrolizin-7a(5H)-yl)methoxy)pyrido[4,3-d]pyrimidin-4-yl)piperazin-2-yl)acetonitrile]: the IC50 is < 10 nM.

Turning to `C#Cc1c(F)ccc2cccc(-c3ncc4c(N5CCN(C(=O)/C(F)=C/c6ccnc(C)n6)[C@@H](CC#N)C5)nc(OC[C@@]56CCCN5C[C@H](F)C6)nc4c3F)c12` [Compound 30], the IC50 is < 10 nM.

With `N#CC[C@H]1CN(c2nc(OC[C@@]34CCCN3C[C@H](F)C4)nc3c(F)c(-c4cccc5ccc(F)c(Cl)c45)ncc23)CCN1C(=O)/C(F)=C/CN1[C@@H]2CC[C@H]1COC2` [Compound 31], the IC50 was ≥ 500 nM.

For the origin of these results see patent US20260274867A1, “PYRIDO[4,3-D]PYRIMIDINE DERIVATIVES AS MUTANT KRAS G12C INHIBITORS FOR THE TREATMENT OF CANCER” (Frontier Medicines Corporation, priority 2023, published 2026).
